Measured values published in PubChem BioAssay (NCI).
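Briefly, cells in 96-well plates were exposed to five compound concentrations for 48 h, and endpoints were estimated by linear interpolation. GI50: concentration for 50% inhibition of growth. Definition used: TGI = concentration required for complete inhibition of growth.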

Tests used:
Experiment in all cases: growth of human tumour cells (NCI), 48 h
786-0 renal = system: 786-0 renal
A498 renal = system: A498 renal
A549 NSCLC = system: A549 NSCLC
ACHN renal = system: ACHN renal
BT-549 breast = system: BT-549 breast
CAKI-1 renal = system: CAKI-1 renal
CCRF-CEM leukemia = system: CCRF-CEM leukemia
COLO 205 colon = system: COLO 205 colon
DU-145 prostate = system: DU-145 prostate
HCC-2998 colon = system: HCC-2998 colon
HCT-116 colon = system: HCT-116 colon
HCT-15 colon = system: HCT-15 colon
HL-60(TB) leukemia = system: HL-60(TB) leukemia
HOP-62 NSCLC = system: HOP-62 NSCLC
HOP-92 NSCLC = system: HOP-92 NSCLC
HS 578T breast = system: HS 578T breast
HT29 colon = system: HT29 colon
IGROV1 ovarian = system: IGROV1 ovarian
K-562 leukemia = system: K-562 leukemia
KM12 colon = system: KM12 colon
LOX IMVI melanoma = system: LOX IMVI melanoma
M14 melanoma = system: M14 melanoma
MALME-3M melanoma = system: MALME-3M melanoma
MCF7 breast = system: MCF7 breast
MDA-MB-231 breast = system: MDA-MB-231 breast
MDA-MB-435 = system: MDA-MB-435
MOLT-4 leukemia = system: MOLT-4 leukemia
NCI-H23 lung = system: NCI-H23 lung
NCI-H460 lung = system: NCI-H460 lung
NCI-H522 lung = system: NCI-H522 lung
NCI/ADR-RES ovarian = system: NCI/ADR-RES ovarian
OVCAR-3 ovarian = system: OVCAR-3 ovarian
OVCAR-4 ovarian = system: OVCAR-4 ovarian
OVCAR-5 ovarian = system: OVCAR-5 ovarian
OVCAR-8 ovarian = system: OVCAR-8 ovarian
PC-3 prostate = system: PC-3 prostate
RPMI-8226 leukemia = system: RPMI-8226 leukemia
SF-268 CNS = system: SF-268 CNS
SF-295 CNS = system: SF-295 CNS
SF-539 CNS = system: SF-539 CNS
SK-MEL-2 melanoma = system: SK-MEL-2 melanoma
SK-MEL-28 melanoma = system: SK-MEL-28 melanoma
SK-MEL-5 melanoma = system: SK-MEL-5 melanoma
SK-OV-3 ovarian = system: SK-OV-3 ovarian
SN12C renal = system: SN12C renal
SNB-19 CNS = system: SNB-19 CNS
SNB-75 CNS = system: SNB-75 CNS
SR leukemia = system: SR leukemia
SW-620 colon = system: SW-620 colon
T-47D breast = system: T-47D breast
TK-10 renal = system: TK-10 renal
U251 CNS = system: U251 CNS
UACC-257 melanoma = system: UACC-257 melanoma
UACC-62 melanoma = system: UACC-62 melanoma
UO-31 renal = system: UO-31 renal
EKVX NSCLC = system: EKVX NSCLC
NCI-H226 lung = system: NCI-H226 lung
RXF 393 renal = system: RXF 393 renal

With CN(C)CCNC(=O)c1nc([N+](=O)[O-])cn1C the TGI (786-0 renal) was greater than 100 µM, the TGI (A498 renal) was greater than 100 µM and the TGI (A549 NSCLC) was greater than 100 µM. It also gave a TGI (ACHN renal) greater than 100 µM, a TGI (BT-549 breast) greater than 100 µM and a TGI (CAKI-1 renal) greater than 100 µM. The TGI (CCRF-CEM leukemia) was greater than 100 µM, the TGI (COLO 205 colon) was greater than 100 µM and the TGI (DU-145 prostate) was greater than 100 µM. The TGI (HCC-2998 colon) was greater than 100 µM, the TGI (HCT-116 colon) was greater than 100 µM and the TGI (HCT-15 colon) was greater than 100 µM. For the same compound, the TGI (HL-60(TB) leukemia) was greater than 100 µM, the TGI (HOP-62 NSCLC) was greater than 100 µM and the TGI (HOP-92 NSCLC) was greater than 100 µM. The TGI (HS 578T breast) was greater than 100 µM, the TGI (HT29 colon) was greater than 100 µM and the TGI (IGROV1 ovarian) was greater than 100 µM. It also gave a TGI (K-562 leukemia) greater than 100 µM, a TGI (KM12 colon) greater than 100 µM and a TGI (LOX IMVI melanoma) greater than 100 µM. The TGI (M14 melanoma) was greater than 100 µM, the TGI (MALME-3M melanoma) was greater than 100 µM and the TGI (MCF7 breast) was greater than 100 µM. The TGI (MDA-MB-231 breast) was greater than 100 µM, the TGI (MDA-MB-435) was greater than 100 µM and the TGI (MOLT-4 leukemia) was greater than 100 µM. It also gave a TGI (NCI-H23 lung) greater than 100 µM, a TGI (NCI-H460 lung) greater than 100 µM and a TGI (NCI-H522 lung) greater than 100 µM. The TGI (NCI/ADR-RES ovarian) was greater than 100 µM, the TGI (OVCAR-3 ovarian) was greater than 100 µM and the TGI (OVCAR-4 ovarian) was greater than 100 µM. It also gave a TGI (OVCAR-5 ovarian) greater than 100 µM, a TGI (OVCAR-8 ovarian) greater than 100 µM and a TGI (PC-3 prostate) greater than 100 µM. It also gave a TGI (RPMI-8226 leukemia) greater than 100 µM, a TGI (SF-268 CNS) greater than 100 µM and a TGI (SF-295 CNS) greater than 100 µM. It also gave a TGI (SF-539 CNS) greater than 100 µM, a TGI (SK-MEL-2 melanoma) greater than 100 µM and a TGI (SK-MEL-28 melanoma) greater than 100 µM. It also gave a TGI (SK-MEL-5 melanoma) greater than 100 µM, a TGI (SK-OV-3 ovarian) greater than 100 µM and a TGI (SN12C renal) greater than 100 µM. For the same compound, the TGI (SNB-19 CNS) was greater than 100 µM, the TGI (SNB-75 CNS) was greater than 100 µM and the TGI (SR leukemia) was greater than 100 µM. It also gave a TGI (SW-620 colon) greater than 100 µM, a TGI (T-47D breast) greater than 100 µM and a TGI (TK-10 renal) greater than 100 µM. For the same compound, the TGI (U251 CNS) was greater than 100 µM, the TGI (UACC-257 melanoma) was greater than 100 µM and the TGI (UACC-62 melanoma) was greater than 100 µM. The TGI (UO-31 renal) was greater than 100 µM.

CCOC(=O)C1=C(c2ccccc2)N(c2ccc(OC)cc2)[C@]2(C#N)C(O)=C(Cl)C(Cl)=C(O)[C@]12C#N was tested, and the GI50 (786-0 renal) was 21.8 µM, the TGI (786-0 renal) was 44.9 µM and the GI50 (A498 renal) was 35.8 µM. It also gave a TGI (A498 renal) greater than 100 µM, a GI50 (A549 NSCLC) of 69.1 µM and a TGI (A549 NSCLC) greater than 100 µM. The GI50 (ACHN renal) was 19.7 µM, the TGI (ACHN renal) was 42.1 µM and the GI50 (BT-549 breast) was 24.2 µM. The TGI (BT-549 breast) was 56.4 µM, the GI50 (CAKI-1 renal) was 27.9 µM and the TGI (CAKI-1 renal) was 80.1 µM. It also gave a GI50 (CCRF-CEM leukemia) of 10.1 µM, a TGI (CCRF-CEM leukemia) of 23.6 µM and a GI50 (COLO 205 colon) of 18.6 µM. It also gave a TGI (COLO 205 colon) of 33.5 µM, a GI50 (DU-145 prostate) of 31.9 µM and a TGI (DU-145 prostate) greater than 100 µM. It also gave a GI50 (EKVX NSCLC) of 40.1 µM, a TGI (EKVX NSCLC) greater than 100 µM and a GI50 (HCT-116 colon) of 16.3 µM. The TGI (HCT-116 colon) was 29.8 µM, the GI50 (HCT-15 colon) was 19.2 µM and the TGI (HCT-15 colon) was 40.8 µM. It also gave a GI50 (HL-60(TB) leukemia) of 24.5 µM, a TGI (HL-60(TB) leukemia) of 50.1 µM and a GI50 (HOP-62 NSCLC) of 20.9 µM. The TGI (HOP-62 NSCLC) was 40.1 µM, the GI50 (HOP-92 NSCLC) was 0.545 µM and the TGI (HOP-92 NSCLC) was 23.3 µM. For the same compound, the GI50 (HS 578T breast) was 43.5 µM, the TGI (HS 578T breast) was greater than 100 µM and the GI50 (HT29 colon) was 34.8 µM. It also gave a TGI (HT29 colon) greater than 100 µM, a GI50 (IGROV1 ovarian) of 21.7 µM and a TGI (IGROV1 ovarian) of 48.6 µM. The GI50 (K-562 leukemia) was 17.6 µM, the TGI (K-562 leukemia) was 34.6 µM and the GI50 (KM12 colon) was 18.3 µM. The TGI (KM12 colon) was 36.5 µM, the GI50 (LOX IMVI melanoma) was 16.4 µM and the TGI (LOX IMVI melanoma) was 30.9 µM. The GI50 (M14 melanoma) was 20.9 µM, the TGI (M14 melanoma) was 41.3 µM and the GI50 (MALME-3M melanoma) was 18.7 µM. For the same compound, the TGI (MALME-3M melanoma) was 42.6 µM, the GI50 (MCF7 breast) was 18.7 µM and the TGI (MCF7 breast) was 36.1 µM. The GI50 (MDA-MB-231 breast) was 20.1 µM, the TGI (MDA-MB-231 breast) was 44.3 µM and the GI50 (MDA-MB-435) was 18.8 µM. For the same compound, the TGI (MDA-MB-435) was 37.1 µM, the GI50 (MOLT-4 leukemia) was 21.9 µM and the TGI (MOLT-4 leukemia) was 56.9 µM. It also gave a GI50 (NCI-H226 lung) of 20.2 µM, a TGI (NCI-H226 lung) of 42.5 µM and a GI50 (NCI-H23 lung) of 17.7 µM. The TGI (NCI-H23 lung) was 33.1 µM, the GI50 (NCI-H460 lung) was 35 µM and the TGI (NCI-H460 lung) was greater than 100 µM. It also gave a GI50 (NCI-H522 lung) of 21.3 µM, a TGI (NCI-H522 lung) of 46.6 µM and a GI50 (NCI/ADR-RES ovarian) of 15.6 µM. The TGI (NCI/ADR-RES ovarian) was 36.5 µM, the GI50 (OVCAR-3 ovarian) was 22.7 µM and the TGI (OVCAR-3 ovarian) was 53.2 µM. It also gave a GI50 (OVCAR-4 ovarian) of 46.3 µM, a TGI (OVCAR-4 ovarian) greater than 100 µM and a GI50 (OVCAR-5 ovarian) of 18.5 µM. It also gave a TGI (OVCAR-5 ovarian) of 39 µM, a GI50 (OVCAR-8 ovarian) of 33 µM and a TGI (OVCAR-8 ovarian) greater than 100 µM. For the same compound, the GI50 (RPMI-8226 leukemia) was 1.97 µM, the TGI (RPMI-8226 leukemia) was 18 µM and the GI50 (RXF 393 renal) was 17.4 µM. The TGI (RXF 393 renal) was 31.5 µM, the GI50 (SF-268 CNS) was 24 µM and the TGI (SF-268 CNS) was 52.2 µM. It also gave a GI50 (SF-295 CNS) of 25.9 µM, a TGI (SF-295 CNS) of 76.7 µM and a GI50 (SF-539 CNS) of 24.5 µM. It also gave a TGI (SF-539 CNS) of 56.3 µM, a GI50 (SK-MEL-2 melanoma) of 32.4 µM and a TGI (SK-MEL-2 melanoma) greater than 100 µM. It also gave a GI50 (SK-MEL-28 melanoma) of 21.3 µM, a TGI (SK-MEL-28 melanoma) of 41.9 µM and a GI50 (SK-MEL-5 melanoma) of 22.1 µM. It also gave a TGI (SK-MEL-5 melanoma) of 51.9 µM, a GI50 (SK-OV-3 ovarian) of 23.4 µM and a TGI (SK-OV-3 ovarian) of 62.7 µM. The GI50 (SN12C renal) was 18.8 µM, the TGI (SN12C renal) was 36.3 µM and the GI50 (SNB-19 CNS) was 20.5 µM. It also gave a TGI (SNB-19 CNS) of 42.1 µM, a GI50 (SNB-75 CNS) of 18.4 µM and a TGI (SNB-75 CNS) of 36.7 µM. It also gave a GI50 (SR leukemia) of 11.5 µM, a TGI (SR leukemia) of 28.8 µM and a GI50 (SW-620 colon) of 20.2 µM. The TGI (SW-620 colon) was 38.4 µM, the GI50 (T-47D breast) was 21.2 µM and the TGI (T-47D breast) was 44.9 µM. For the same compound, the GI50 (TK-10 renal) was 24.3 µM, the TGI (TK-10 renal) was 74.8 µM and the GI50 (U251 CNS) was 22.5 µM. It also gave a TGI (U251 CNS) of 52.5 µM, a GI50 (UACC-257 melanoma) of 22.2 µM and a TGI (UACC-257 melanoma) of 52.2 µM. The GI50 (UO-31 renal) was 24.6 µM and the TGI (UO-31 renal) was 68 µM.
